Data: PMC6387369, “Carbonic Anhydrase Inhibitors of Different Structures Dilate Pre-Contracted Porcine Retinal Arteries” (International Journal of Molecular Sciences, 2019)
Like-named read-outs stand apart in the source and are kept apart here.

Experiments:
porcine retinal arteries = assay: small vessel myography of wall tension in isolated retinal artery segments pre-contracted with U-46619; format: cell-based; details: for EC50: Sus scrofa, best fit to concentration-response curves, arteries pre-contracted with 10^−6 M U-46619, read-out: mean EC50 of vasodilation; for vasodilation in a single representative experiment, percent of maximum contraction / mean dilation as percentage of the maximum contraction induced by U-46619: single dose of 10^−3 M; for vasodilation in a single representative experiment, percent of maximum contraction: pre-contracted with 10^−6 M U-46619; for mean dilation as percentage of the maximum contraction induced by U-46619: mean ± SEM; for peak wall tension after U-46619: 10^−6 M; for wall tension reached after dilation: final level (slower phase for compound 4)
hCA IV = molecular target: T1, hCA IV (Homo sapiens, UniProt P22748); assay: stopped flow CO2 hydrase assay, hCA IV; format: biochemical; details: mean from 3 assays, errors ± 5%–10%
T1 construct: made in house
T1 sequence (P22748 19-312): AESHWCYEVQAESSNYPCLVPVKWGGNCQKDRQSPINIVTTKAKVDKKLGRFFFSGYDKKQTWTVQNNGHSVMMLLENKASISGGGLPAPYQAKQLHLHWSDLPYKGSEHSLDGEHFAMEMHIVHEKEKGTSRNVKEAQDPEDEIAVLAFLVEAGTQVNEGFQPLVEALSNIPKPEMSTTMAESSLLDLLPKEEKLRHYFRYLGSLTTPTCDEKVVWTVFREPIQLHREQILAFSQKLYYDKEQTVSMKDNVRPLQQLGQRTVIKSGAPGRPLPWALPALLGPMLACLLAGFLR

hCA I [1] = molecular target: T2, hCA I (Homo sapiens, UniProt P00915); assay: stopped flow CO2 hydrase assay, hCA I; format: biochemical; details: mean from 3 assays, errors ± 5%–10%
T2 construct: made in house
T2 sequence (P00915 whole entry): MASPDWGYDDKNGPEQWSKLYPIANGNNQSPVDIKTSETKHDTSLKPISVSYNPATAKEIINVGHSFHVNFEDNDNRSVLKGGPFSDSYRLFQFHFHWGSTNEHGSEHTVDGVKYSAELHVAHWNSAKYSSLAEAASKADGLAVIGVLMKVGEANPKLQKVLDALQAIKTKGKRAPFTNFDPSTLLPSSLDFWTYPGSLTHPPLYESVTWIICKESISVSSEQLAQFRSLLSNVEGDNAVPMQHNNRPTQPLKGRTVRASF

hCA II [2] = molecular target: T3, hCA II (Homo sapiens, UniProt P00918); assay: stopped flow CO2 hydrase assay, hCA II; format: biochemical; details: mean from 3 assays, errors ± 5%–10%
T3 construct: made in house

hCA IX = molecular target: T4, hCA IX (Homo sapiens, UniProt Q16790); assay: stopped flow CO2 hydrase assay, hCA IX; format: biochemical; details: mean from 3 assays, errors ± 5%–10%
T4 construct: made in house

hCA XII = molecular target: T5, hCA XII (Homo sapiens, UniProt O43570); assay: stopped flow CO2 hydrase assay, hCA XII; format: biochemical
T5 construct: made in house
T5 sequence (O43570 25-354): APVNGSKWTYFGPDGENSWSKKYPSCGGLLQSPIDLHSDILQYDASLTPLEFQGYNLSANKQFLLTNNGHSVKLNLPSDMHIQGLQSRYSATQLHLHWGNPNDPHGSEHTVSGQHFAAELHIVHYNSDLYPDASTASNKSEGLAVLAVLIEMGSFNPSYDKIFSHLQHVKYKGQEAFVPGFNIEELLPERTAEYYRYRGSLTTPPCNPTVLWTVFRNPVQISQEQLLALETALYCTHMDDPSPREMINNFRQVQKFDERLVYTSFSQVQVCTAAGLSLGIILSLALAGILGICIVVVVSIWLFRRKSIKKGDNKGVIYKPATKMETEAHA

hCA I [3] = molecular target: T2, hCA I; details: stopped flow; cited from earlier work
hCA II [4] = molecular target: T3, hCA II; parameters: method as in PMID 16996620; details: stopped flow; cited from earlier work

Question: With `NS(=O)(=O)c1nnc(NS(=O)(=O)c2ccccc2)s1` [Compound 1, Benzolamide, reference compound] as the compound, how does the “final dilation when added after DZA dilation had reached a steady level” value (porcine retinal arteries; 10^−3 M BZA added on top of 10^−3 M DZA, one vessel (Figure 2B)) read?
Answer: The value was 100%.

Question: What about the EC50 (porcine retinal arteries) of the same compound?
Answer: Its EC50 is 84.3 µM.

Question: What about the “vasodilation in a single representative experiment, percent of maximum contraction” value (“vasodilation … percent of maximum contraction” below) (porcine retinal arteries; one vessel) of the same compound?
Answer: Its value is “almost complete inhibition”.

Question: What about the “mean dilation as percentage of the maximum contraction induced by U-46619” value (“mean dilation as percentage” for short) (porcine retinal arteries) of the same compound?
Answer: The value was 78.4% ± 8.5%.

Question: What about the Ki (hCA IV) of the same compound?
Answer: Its Ki is 0.012 µM.

Question: For `C#CCNc1ccc2c(C)cc(=O)oc2c1` [Compound 6], which Ki (hCA I [1]) is on record?
Answer: Its Ki is over 10 µM.

Question: And the Ki (hCA II [2])?
Answer: The Ki was over 10 µM.

Question: What about the EC50 (porcine retinal arteries) of the same compound?
Answer: Its EC50 is 101 µM.

Question: What about the “vasodilation … percent of maximum contraction” value (porcine retinal arteries; one vessel) of the same compound?
Answer: The value was 96.8%.

Question: What about the “mean dilation as percentage” value (porcine retinal arteries) of the same compound?
Answer: Its value is 99.5% ± 1.2%.

Question: What about the Ki (hCA IX) of the same compound?
Answer: Its Ki is 0.474 µM.

Question: What about the Ki (hCA XII; mean from 3 assays, errors ± 5%–10%) of the same compound?
Answer: The Ki was 0.0445 µM.

Question: Which Ki (hCA I [1]) does the source give for `C#CCN(CC#C)CCc1ccc(S(N)(=O)=O)cc1` [Compound 3] here?
Answer: Its Ki is 4.01 µM.

Question: What about the Ki (hCA II [2]) of the same compound?
Answer: The Ki was 0.0058 µM.

Question: And the EC50 (porcine retinal arteries)?
Answer: Its EC50 is 188 µM.

Question: And the “vasodilation … percent of maximum contraction” value (porcine retinal arteries; one vessel)?
Answer: The value was 91%.

Question: What about the “mean dilation as percentage” value (porcine retinal arteries) of the same compound?
Answer: Its value is 102.2% ± 3.7%.

Question: What about the Ki (hCA IX) of the same compound?
Answer: Its Ki is 0.0557 µM.

Question: Which results are given for `CCCCC[C@H](O)/C=C/[C@@H]1[C@@H](C/C=C\CCCC(=O)O)[C@H]2CO[C@@H]1C2` [Compound U-46619, 9,11-dideoxy-9 α,11α methanoepoxy prostaglandin F2α, reference compound]?
Answer: peak wall tension after U-46619 (porcine retinal arteries; Figure 2A, baseline 0.4 mN/mm): about 1.75 mN/mm; peak wall tension after U-46619 (porcine retinal arteries; Figure 3A, baseline 0.6 mN/mm): 2.4 mN/mm; peak wall tension after U-46619 (porcine retinal arteries; Figure 3B, baseline about 0.38 mN/mm): 1.63 mN/mm; peak wall tension after U-46619 (porcine retinal arteries; Figure 4A, baseline 1.54 mN/mm): 3.38 mN/mm; peak wall tension after U-46619 (porcine retinal arteries; Figure 4B, baseline 0.95 mN/mm): 2.21 mN/mm

Question: What does the source list for `CCN[C@H]1C[C@H](C)S(=O)(=O)c2sc(S(N)(=O)=O)cc21` [Compound 2, Dorzolamide, reference compound]?
Answer: vasodilation in a single representative experiment, percent of maximum contraction (porcine retinal arteries; one vessel): 33%; mean dilation as percentage of the maximum contraction induced by U-46619 (porcine retinal arteries): 69.7% ± 5.7%

Question: For `C#CCOc1ccc2ccc(=O)oc2c1` [Compound 5], which Ki (hCA I [3]) is on record?
Answer: The Ki was over 10 µM.

Question: What about the Ki (hCA II [4]) of the same compound?
Answer: The Ki was over 10 µM.

Question: What about the “wall tension reached after dilation” value (porcine retinal arteries; 10^−3 M, one vessel) of the same compound?
Answer: The value was 0.77 mN/mm.

Question: And the EC50 (porcine retinal arteries)?
Answer: The EC50 was 4.12 µM.

Question: What about the “vasodilation … percent of maximum contraction” value (porcine retinal arteries; one vessel) of the same compound?
Answer: The value was 140%.

Question: And the “mean dilation as percentage” value (porcine retinal arteries)?
Answer: Its value is 116.5% ± 1.7%.

Question: What about the Ki (hCA IV) of the same compound?
Answer: Its Ki is 0.0764 µM.

Question: And the “times less effective than 4 against hCA XII” value (hCA XII; ratio of KI values versus compound 4)?
Answer: Its value is 12.9 times.

Question: Which results are given for `C#CCOc1ccc2oc(=O)ccc2c1` [Compound 4]?
Answer: wall tension after initial very fast phase of dilation (porcine retinal arteries; 10^−3 M, one vessel, peak constriction 1.63 mN/mm (Figure 3B)): about 0.66 mN/mm; wall tension reached after dilation (porcine retinal arteries; 10^−3 M, one vessel): about 0.36 mN/mm; EC50 (porcine retinal arteries): 134 µM; vasodilation in a single representative experiment, percent of maximum contraction (porcine retinal arteries; one vessel): 101%; mean dilation as percentage of the maximum contraction induced by U-46619 (porcine retinal arteries): 98.8% ± 6.1%
